Measurements published in PMC8465315, “Molecular Umbrella as a Nanocarrier for Antifungals” (Molecules, 2021).
Values after ≈ are worked out from the molar mass of the structure shown. “Also recorded” adds a separate entry of the source. Read-outs that look alike come from different tables or passages of the source. Values belong to the molecule of their own block, whether it stands above or below them.

Tests used:
[1] = system: pig liver esterase; test: HPLC-MS analysis of conjugate cleavage, model system with pig liver esterase; format: in vitro ADME; conditions: pig liver esterase 5 mg mL^−1; conjugate 150 µM; 30 °C; 0, 30, 120 min
Procedure: (§1) Conjugates 24a–d, containing the TML system, were tested for susceptibility to enzymatic cleavage in the model system with pig liver esterase and in cell-free extract prepared from C. albicans cells. Conjugate 35 containing the o-dithiobenzylcarbamoyl linker was tested in the model system with glutathione and in C. albicans cell-free extract.
(§2) Analysis of cleavage of the conjugates was performed in two experimental systems: (A) model system, in the presence of pig liver esterase or glutathione, reduced; (B) in C. albicans cell-free extract.
(§3) Mixtures containing a given conjugate at the initial concentration of 150 µM and pig liver esterase, 5 mg mL^−1 or 10 mM glutathione, reduced, in a total volume of 200 μL were incubated at 30 °C. Samples of 50 μL were collected at zero time, after 30 min, and after 120 min and subjected to HPLC-MS analysis.
(§4) The HPLC-MS system consisted of a liquid chromatograph, a degasser, a binary pomp, an auto-sampler, and a column oven, which was combined with an MS detector with an electrospray source (AJS ESI) and quadrupole analyzer (1260 Infinity II and 6470 Triple Quad LC/MS, Agilent Technologies, Waldbronn, Germany). The ChemStation software was used to control the LC-MS system and for data processing.
(§5) Chromatographic separations were performed on an Eclipse XDB-C18 column (150 mm × 4.6 mm, 5 μm). For the separation, a gradient of mobile phase A (H2O + 0.01% HCOOH) and mobile phase B (100% methanol) was used. The gradient profile was set as follows: 0 min—95% effluent A, 8 min—70% effluent A, 11 min—50% effluent A, 12 min—95% effluent A, 17 min—95% effluent A. The flow rate was 1 mL min^−1, the column temperature was 25 °C, and the injection volume was 20 μL.
(§6) The electrospray source operated in a negative mode. The data were collected in a MS scanning mode (MS2 SCAN) with the range 150–700 (m/z).

[2] = system: C. albicans cell-free extract; format: in vitro ADME, Candida albicans; conditions: conjugate 150 µM, 30 °C, 0, 30, 120 min
Procedure: as §1
C. albicans cells were harvested from the culture in YPD medium in the logarithmic phase of growth and washed with PBS, pH 7.4. Then, cells were suspended in a minimal amount of PBS to an optical density OD660 ≈ 1.5. A sample of 1.5 mL of the cell suspension was put into the Lysing Matrix D, 2 mL tubes containing 1.4 mm ceramic spheres (MP Biomedicals). The tubes were vortexed 5 times for 2 min intervals, with 2 min breaks for cooling in the ice/water bath. Finally, the mixtures were centrifuged (10,000× g, 4 °C, 20 min), and the supernatant was pushed through the syringe filter, 0.22 μm pore size, to remove unbroken cells. The thus-obtained cell-free extract was kept at 4 °C and used no later than 5 h after preparation.
as §2
A given conjugate was dissolved in 4 mL of C. albicans cell-free extract to the initial concentration of 150 µM. Mixtures were incubated at 30 °C. Samples of 1 mL were collected at zero time, after 30 min, and after 120 min. The collected samples were immediately de-proteinized by centrifugation (4 °C, 5000× g, 10 min) in Amicon® Ultra-4 Centrifugal Filter Units, 3 kDa cutoff limit. Samples of 50 μL were collected from the filtrates and subjected to HPLC-MS analysis.
as §4, §5, §6

[3] = system: Candida spp.; test: Antifungal in vitro activity, summary statements over the Candida strains tested; format: cell-based
Procedure: (§7) The antifungal in vitro activity of conjugates 24a–d and 35 was determined by the serial two-fold dilution method, using the 96-well microtiter plates, in two growth media, RPMI-1640 and YNB-AS, against seven yeast species from the Candida genus. The MIC50 and MIC90 values, i.e., concentrations at which cell growth was inhibited in 50% and 90%, respectively, were measured and compared to those of the intact cispentacin. The concentration values presented in Table 1 and Table 2 are expressed in mM units to allow the comparison of the compounds’ effectiveness at the molecular level. For data expressed in μg mL^−1 units, such comparison is not possible, since the molecular masses of conjugates (≈1755–2114 D range) are 14–16-fold higher than that of cispentacin (128.3 D).
(§8) Susceptibility testing was performed in two growth media: (a) RPMI-1640 w/o sodium bicarbonate, with L-glutamine + 2% glucose + 3.45% MOPS, pH adjusted to 7.0; (b) YNB-AS—Yeast Nitrogen Base w/o amino acids (contains ammonium sulfate 5 g L^−1) + 2% glucose. The in vitro growth inhibitory activity of antifungals was quantified by determination of MIC50 and MIC90 values by the serial two-fold dilution method, using the 96-well microtiter plates. Serial dilutions of cispentacin and its conjugates were prepared in the 4–0.015 mM range.
(§9) Conditions of the RPMI-1640-based assay were the same as outlined in the CLSI recommendations except for the end-point readout that was done by spectrophotometric determination of cell density at 660 nm. Turbidity in individual wells was measured with a microplate reader (Victor^3; Perkin Elmer). The 96-well microtiter plates were also used for the determination of in vitro growth inhibitory activity in YNB-AS medium. Individual wells were inoculated with 5 × 10^3 Candida cells mL^−1 from the overnight culture in YPD medium. The plates were incubated at 37 °C for 24 h, and then, turbidity was measured with a microplate reader at 660 nm, as described above for the RPMI-1640-based assay.
(§10) Values of MIC50 and MIC90 were read from the graphs of A660 vs. drug concentration and corresponded to the interpolated values of drug concentration at which A660 was 50% or 10% of that measured for the drug-free control.

[4] = system: Candida glabrata DSM 11226; test: Antifungal in vitro activity, serial two-fold dilution, RPMI-1640 medium; format: cell-based; conditions: Nakaseomyces glabratus, DSM11226, C. glabrata
Procedure: as §7
(§11) The reference strains used in this study were Candida albicans ATCC 10231, Candida glabrata DSM 11226, and Candida krusei DSM 6128. C. albicans B3, B4, Gu4, and Gu5 clinical isolates were kindly provided by Joachim Morschhäuser, Würzburg, Germany. Gu4 and B3 are fluconazole-sensitive isolates obtained from early infection episodes, while Gu5 and B4 are the corresponding fluconazole-resistant isolates obtained from later episodes in the same patients treated with fluconazole. Strains were grown at 30 °C in YPD medium (2% glucose, 1% yeast extract, and 1% Bacto-Peptone) and stored on YPD agar plates containing 2% agar.
as §8, §9, §10

[5] = system: Candida krusei DSM 6128; test: as above; format: cell-based; conditions: Pichia kudriavzevii, DSM6128, C. krusei
Procedure: as §7, §11, §8, §9, §10

[6] = system: C. albicans Gu4; test: as above; format: cell-based; conditions: Candida albicans, C. albicans Gu4 (fluconazole-sensitive isolate)
Procedure: as §7, §11, §8, §9, §10

[7] = system: C. albicans B4; test: as above; format: cell-based; conditions: Candida albicans, C. albicans B4 (fluconazole-resistant isolate)
Procedure: as §7, §11, §8, §9, §10

[8] = system: C. albicans B3; test: as above; format: cell-based; conditions: Candida albicans, C. albicans B3 (fluconazole-sensitive isolate)
Procedure: as §7, §11, §8, §9, §10

[9] = system: C. albicans Gu5; test: as above; format: cell-based; conditions: Candida albicans, C. albicans Gu5 (fluconazole-resistant isolate)
Procedure: as §7, §11, §8, §9, §10

[10] = system: C. albicans ATCC 10231; test: as above; format: cell-based; conditions: Candida albicans, ATCC10231, >>1 = no growth inhibition at 1 mM
Procedure: as §7, with “For data expressed in μg mL^−1 units, such comparison is not possible, since the molecular masses of conjugates (≈1755–2114 D range) are 14–16-fold higher than that of cispentacin (128.3 D).” left out
as §8, with “Serial dilutions of cispentacin and its conjugates were prepared in the 4–0.015 mM range.” left out
(§12) Conditions of the RPMI-1640-based assay were the same as outlined in the CLSI recommendations except for the end-point readout that was done by spectrophotometric determination of cell density at 660 nm. Turbidity in individual wells was measured with a microplate reader (Victor^3; Perkin Elmer). […]

[11] = system: Candida glabrata DSM 11226; test: Antifungal in vitro activity, serial two-fold dilution, YNB-AS medium; format: cell-based; conditions: Nakaseomyces glabratus, DSM11226, C. glabrata
Procedure: as §7, §11, §8, §9, §10

[12] = system: Candida krusei DSM 6128; test: as above; format: cell-based; conditions: Pichia kudriavzevii, DSM6128, C. krusei
Procedure: as §7, §11, §8, §9, §10

[13] = system: C. albicans Gu4; test: as above; format: cell-based; conditions: Candida albicans, C. albicans Gu4 (fluconazole-sensitive isolate)
Procedure: as §7, §11, §8, §9, §10

[14] = system: C. albicans B4; test: as above; format: cell-based; conditions: Candida albicans, C. albicans B4 (fluconazole-resistant isolate)
Procedure: as §7, §11, §8, §9, §10

[15] = system: C. albicans B3; test: as above; format: cell-based; conditions: Candida albicans, C. albicans B3 (fluconazole-sensitive isolate)
Procedure: as §7, §11, §8, §9, §10

[16] = system: C. albicans Gu5; test: as above; format: cell-based; conditions: Candida albicans, C. albicans Gu5 (fluconazole-resistant isolate)
Procedure: as §7, §11, §8, §9, §10

[17] = system: C. albicans ATCC 10231; test: as above; format: cell-based; conditions: Candida albicans, ATCC10231, >>1 = no growth inhibition at 1 mM
Procedure: as §7, with “For data expressed in μg mL^−1 units, such comparison is not possible, since the molecular masses of conjugates (≈1755–2114 D range) are 14–16-fold higher than that of cispentacin (128.3 D).” left out
as §8, with “Serial dilutions of cispentacin and its conjugates were prepared in the 4–0.015 mM range.” left out
as §12

[18] = HPLC-MS analysis of conjugate cleavage, model system with glutathione; format: in vitro ADME; conditions: reduced, conjugate 150 µM, 30 °C, 0, 30, 120 min
Procedure: as §1, §2, §3, §4
Chromatographic separations were performed on an Eclipse XDB-C18 column (150 mm × 4.6 mm, 5 μm). […]

[19] = both growth media (RPMI-1640 and YNB-AS)

Structure (SMILES): Cc1cc(C)c(C(C)(C)CC(=O)N[C@H]2CCC[C@H]2C(=O)O)c(OC(=O)CCCCCCC(=O)N(CCCCNC(=O)CC[C@@H](C)[C@H]2CC[C@H]3[C@@H]4[C@H](OS(=O)(=O)O)C[C@@H]5C[C@H](OS(=O)(=O)O)CC[C@]5(C)[C@H]4C[C@H](OS(=O)(=O)O)[C@]23C)CCCNC(=O)CC[C@@H](C)[C@H]2CC[C@H]3[C@@H]4[C@H](OS(=O)(=O)O)C[C@@H]5C[C@H](OS(=O)(=O)O)CC[C@]5(C)[C@H]4C[C@H](OS(=O)(=O)O)[C@]23C)c1 [24d]
cleavage / release of cispentacin (HPLC-MS) [1]: Presence of the released cispentacin was confirmed
cleavage / release of cispentacin or its derivative (HPLC-MS) [2]: the product of a possible cleavage, with RT similar to that of cispentacin but with 17 D higher MW, was formed
cleavage / release of cispentacin or its derivative (HPLC-MS) ([2]; listed as 26d): found cleavable in the cell-free extract
antifungal activity ([3]; RPMI-1640 medium): devoid of antifungal activity
antifungal activity [3, 19]: inactive in both media
antifungal activity ([3]; both growth media (RPMI-1640 and YNB-AS), listed as 26d): not active as an antifungal

MIC50 [4]: 510 µM (≈ 65.9 µg/mL)
MIC90 [4]: > 1000 µM
MIC50 [5]: 280 µM (≈ 36.2 µg/mL)
MIC90 [5]: 570 µM (≈ 73.6 µg/mL)
MIC50 [6]: 260 µM (≈ 33.6 µg/mL)
MIC90 [6]: 420 µM (≈ 54.2 µg/mL)
MIC50 [7]: 340 µM (≈ 43.9 µg/mL)
MIC90 [7]: 580 µM (≈ 74.9 µg/mL)
MIC50 [8]: 210 µM (≈ 27.1 µg/mL)
MIC90 [8]: 360 µM (≈ 46.5 µg/mL)
MIC50 [9]: 410 µM (≈ 53 µg/mL)
MIC90 [9]: 640 µM (≈ 82.7 µg/mL)
MIC50 [10]: 80 µM (≈ 10.3 µg/mL)
MIC90 [10]: 340 µM (≈ 43.9 µg/mL)
MIC50 [11]: 100 µM (≈ 12.9 µg/mL)
MIC90 [11]: 500 µM (≈ 64.6 µg/mL)
MIC50 [12]: 90 µM (≈ 11.6 µg/mL)
MIC90 [12]: 150 µM (≈ 19.4 µg/mL)
MIC50 [13]: 150 µM (≈ 19.4 µg/mL)
MIC90 [13]: 180 µM (≈ 23.2 µg/mL)
MIC50 [14]: 170 µM (≈ 22 µg/mL)
MIC90 [14]: 280 µM (≈ 36.2 µg/mL)
MIC50 [15]: 110 µM (≈ 14.2 µg/mL)
MIC90 [15]: 150 µM (≈ 19.4 µg/mL)
MIC50 [16]: 270 µM (≈ 34.9 µg/mL)
MIC90 [16]: 390 µM (≈ 50.4 µg/mL)
MIC50 [17]: 20 µM (≈ 2.58 µg/mL)
MIC90 [17]: 100 µM (≈ 12.9 µg/mL)
Structure (SMILES): N[C@H]1CCC[C@H]1C(=O)O [CisP, cispentacin]

Structure (SMILES): C[C@H](CCC(=O)NCCCCN(CCCNC(=O)CC[C@@H](C)[C@H]1CC[C@H]2[C@@H]3[C@H](OS(=O)(=O)O)C[C@@H]4C[C@H](OS(=O)(=O)O)CC[C@]4(C)[C@H]3C[C@H](OS(=O)(=O)O)[C@]12C)C(=O)CCSSc1ccccc1COC(=O)N[C@H]1CCC[C@H]1C(=O)O)[C@H]1CC[C@H]2[C@@H]3[C@H](OS(=O)(=O)O)C[C@@H]4C[C@H](OS(=O)(=O)O)CC[C@]4(C)[C@H]3C[C@H](OS(=O)(=O)O)[C@]12C [compound 35]
cleavage / release of cispentacin or its derivative (HPLC-MS) [2]: Neither cispentacin nor the m/z 145.1/145.2 compound was found
cleavage / release of cispentacin (HPLC-MS) [18]: found in the chromatogram of post-reaction mixture; also recorded: cleavage was observed
antifungal activity ([3]; RPMI-1640 medium): devoid of antifungal activity
antifungal activity [3, 19]: inactive in both media
